Tests used:
rat [1] = details: Subchronic oral toxicity in rodents, fischer, Feed, dose end: 45 day, group: systemic, systemic / in life observation / body weight / body weight gain
rat [2] = details: Carcinogenicity; fischer; Oral; Feed; dose end: 78 week; group: systemic; systemic / in life observation / body weight / body weight gain + systemic / pathology microscopic / peritoneum / neoplasm nos + systemic / …
mouse [3] = details: Prenatal developmental toxicity study, cd1, Oral, Gavage/Intubation, dose end: 15 GD
mouse [4] = details: Carcinogenicity, b6c3f1, Oral, Feed, dose end: 78 week, group: systemic
mouse [5] = details: Subchronic oral toxicity in rodents, b6c3f1, Feed, dose end: 45 day, group: systemic, systemic / in life observation / mortality / mortality
rat [6] = details: Subchronic oral toxicity in rodents, sprague dawley, Feed, dose end: 13 week, group: systemic, systemic / clinical chemistry / protein / protein + systemic / in life observation / body weight / body weight + systemic / in life …
rabbit = details: Prenatal developmental toxicity study, new zealand white, Oral, Gavage/Intubation, dose end: 18 GD
mouse [7] = details: Carcinogenicity, cd1, Oral, Feed, dose end: 94 week, group: systemic
rat [8] = details: Combined chronic toxicity/carcinogenicity; sprague dawley; Oral; Feed; dose end: 24 month; group: systemic; systemic / in life observation / body weight / body weight + systemic / in life observation / body weight / body weight gain + systemic / …
dog [9] = details: Subchronic oral toxicity in nonrodent, beagle, Feed, dose end: 90 day, group: systemic
rat [10] = details: Multigenerational reproductive toxicity study, wistar, Oral, Feed, dose end: 2 generation
dog [11] = details: Chronic toxicity; beagle; Oral; Feed; dose end: 52 week; group: systemic; systemic / clinical chemistry / alkaline phosphatase (alp/alk) / alkaline phosphatase (alp/alk) + systemic / clinical chemistry / …
rat [12] = details: Subchronic oral toxicity in rodents, fischer, Feed, dose end: 13 week, group: systemic
mouse [13] = details: Carcinogenicity; other; Oral; Feed; dose end: 104 week; group: systemic; systemic / pathology microscopic / eye / cataract + systemic / pathology microscopic / kidney / vacuolization
rat [14] = details: Combined chronic toxicity/carcinogenicity; fischer; Oral; [Not Specified]; dose end: 105 week; group: systemic; systemic / in life observation / body weight / body weight gain + systemic / pathology microscopic / kidney / cytoplasmic alteration + …
mouse [15] = details: Prenatal developmental toxicity study, cd1, Oral, [Not Specified], dose end: 14 GD
mouse [16] = details: Prenatal developmental toxicity study, cd1, Oral, Gavage/Intubation, dose end: 15 GD; remark: listed apart in the source
mouse [17] = details: Multigenerational reproductive toxicity study, cd1, Oral, Water, dose end: 2 generation, group: offspring
rat [18] = details: Carcinogenicity; other; Oral; Feed; dose end: 24 month; group: systemic; systemic / pathology microscopic / [other] / [other]
rat [19] = details: Prenatal developmental toxicity study, sprague dawley, Oral, Gavage/Intubation, dose end: 15 GD
[20] = group: developmental, developmental / developmental malformation / bone / [other] + developmental / developmental malformation / general / [other] + systemic / in…
[21] = group: maternal, reproductive / reproductive performance / implantations / implantations + reproductive / reproductive performance / resorptions / …
[22] = group: maternal, systemic / pathology gross / spleen / enlarged
[23] = systemic / in life observation / body weight / body weight
[24] = systemic / in life observation / body weight / body weight + systemic / in life observation / mortality / mortality
[25] = group: developmental, developmental / developmental malformation / bone / [other] + developmental / developmental malformation / bone / misshapen
[26] = group: maternal, reproductive / reproductive performance / aborted / aborted + reproductive / reproductive performance / postimplantation loss / …
[27] = systemic / in life observation / body weight / body weight gain + systemic / organ weight / liver / relative to body weight + systemic / …
[28] = systemic / organ weight / liver / relative to body weight + systemic / pathology microscopic / liver / vacuolization
[29] = systemic / organ weight / liver / relative to body weight + systemic / pathology microscopic / liver / vacuolization + systemic / in life …
[30] = group: offspring, systemic / in life observation / body weight / offspring (pup) weight
[31] = group: parental, systemic / in life observation / body weight / body weight + systemic / in life observation / body weight / body weight gain + systemic / in…
[32] = systemic / clinical chemistry / creatinine / creatinine + systemic / hematology / erythrocyte (rbc) count differential / erythrocyte (rbc…
[33] = group: developmental, systemic / in life observation / body weight / offspring (pup) weight gain
[34] = group: maternal, systemic / in life observation / mortality / mortality
[35] = group: developmental, developmental / developmental malformation / bone / incomplete ossification + systemic / in life observation / body weight / fetal weight + …
[36] = group: maternal, systemic / organ weight / uterus / nos + systemic / in life observation / clinical signs / altered breathing rate + systemic / in life …
[37] = systemic / in life observation / body weight / offspring (pup) weight + systemic / organ weight / liver / relative to body weight + systemic…
[38] = group: developmental, developmental / developmental malformation / bone / [other] + developmental / developmental malformation / bone / delayed ossification + …
[39] = group: maternal, systemic / in life observation / body weight / body weight + systemic / in life observation / food consumption / food consumption + systemic…

Nc1ccc(S(=O)(=O)c2ccc(N)cc2)cc1 [Dapsone]
LEL (rat [1]): 60 mg/kg/day | LOAEL (rat [1]): 60 mg/kg/day | NEL (rat [1]): < 60 mg/kg/day | NOAEL (rat [1]): < 60 mg/kg/day | LEL (rat [2]): 30 mg/kg/day | LOAEL (rat [2]): > 60 mg/kg/day | NEL (rat [2]): < 30 mg/kg/day | NOAEL (rat [2]): ≥ 60 mg/kg/day | LEL (mouse [3]; [20]): 200 mg/kg/day | LOAEL (mouse [3]; [20]): > 200 mg/kg/day | NEL (mouse [3]; [20]): 100 mg/kg/day | NOAEL (mouse [3]; [20]): ≥ 200 mg/kg/day | LOAEL (mouse [3]; [21]): > 200 mg/kg/day | NOAEL (mouse [3]; [21]): ≥ 200 mg/kg/day | LEL (mouse [3]; [22]): 50 mg/kg/day | NEL (mouse [3]; [22]): < 50 mg/kg/day | LOAEL (mouse [4]; [23]): 75 mg/kg/day | NOAEL (mouse [4]; [23]): < 75 mg/kg/day | LEL (mouse [4]; [24]): 75 mg/kg/day | NEL (mouse [4]; [24]): < 75 mg/kg/day | LEL (mouse [5]): 300 mg/kg/day | LOAEL (mouse [5]): > 7500 mg/kg/day | NEL (mouse [5]): < 300 mg/kg/day | NOAEL (mouse [5]): ≥ 7500 mg/kg/day

COCC(C)N(C(=O)CCl)c1c(C)csc1C (centres undefined) [Dimethenamid]
LEL (rat [6]): 98 mg/kg/day | LOAEL (rat [6]): 98 mg/kg/day | NEL (rat [6]): 33.5 mg/kg/day | NOAEL (rat [6]): 33.5 mg/kg/day | LEL (rabbit; [25]): 150 mg/kg/day | LOAEL (rabbit; [25]): 150 mg/kg/day | NEL (rabbit; [25]): 75 mg/kg/day | NOAEL (rabbit; [25]): 75 mg/kg/day | LEL (rabbit; [26]): 150 mg/kg/day | LOAEL (rabbit; [26]): 150 mg/kg/day | NEL (rabbit; [26]): 75 mg/kg/day | NOAEL (rabbit; [26]): 75 mg/kg/day | LOAEL (mouse [7]; systemic / in life observation / body weight / body weight gain): 200 mg/kg/day | LEL (mouse [7]; [27]): 200 mg/kg/day | NEL (mouse [7]; [27]): 40.1 mg/kg/day | NOAEL (mouse [7]; [27]): 40.1 mg/kg/day | LEL (rat [8]): 36 mg/kg/day | LOAEL (rat [8]): 36 mg/kg/day | NEL (rat [8]): 5.1 mg/kg/day | NOAEL (rat [8]): 5.1 mg/kg/day | LEL (dog [9]; [28]): 33.6 mg/kg/day | LOAEL (dog [9]; [28]): 33.6 mg/kg/day | NEL (dog [9]; [29]): 4.72 mg/kg/day | NOAEL (dog [9]; [29]): 4.72 mg/kg/day | LEL (rat [10]; [30]): 150 mg/kg/day | LOAEL (rat [10]; [30]): 150 mg/kg/day | NEL (rat [10]; [30]): 36 mg/kg/day | NOAEL (rat [10]; [30]): 36 mg/kg/day | LEL (rat [10]; [31]): 150 mg/kg/day | LOAEL (rat [10]; [31]): 150 mg/kg/day | NEL (rat [10]; [31]): 36 mg/kg/day | NOAEL (rat [10]; [31]): 36 mg/kg/day | LEL (dog [11]): 48.7 mg/kg/day | LOAEL (dog [11]): 48.7 mg/kg/day | NEL (dog [11]): 10.1 mg/kg/day | NOAEL (dog [11]): 10.1 mg/kg/day

CCOc1nc(F)cc2nc(S(=O)(=O)Nc3c(Cl)cccc3Cl)nn12 [Diclosulam]
LEL (rat [12]; [32]): 50 mg/kg/day | NEL (rat [12]; [32]): < 50 mg/kg/day | NOAEL (rat [12]; [32]): 50 mg/kg/day | LOAEL (rat [12]; systemic / organ weight / liver / relative to body weight + systemic / pathology microscopic / liver / hypertrophy + systemic / pathology …): 100 mg/kg/day | LEL (mouse [13]): 51.3 mg/kg/day | LOAEL (mouse [13]): 51.3 mg/kg/day | NEL (mouse [13]): < 51.3 mg/kg/day | NOAEL (mouse [13]): < 51.3 mg/kg/day | LEL (rat [14]): 102 mg/kg/day | LOAEL (rat [14]): 102 mg/kg/day | NEL (rat [14]): 5.1 mg/kg/day | NOAEL (rat [14]): 5.1 mg/kg/day

OCCOCCOCCO [Triethylene glycol]
LEL (mouse [15]; [33]): 11300 mg/kg/day | LOAEL (mouse [15]; [33]): 11300 mg/kg/day | NEL (mouse [15]; [33]): 4500 mg/kg/day | NOAEL (mouse [15]; [33]): 4500 mg/kg/day | LEL (mouse [15]; [34]): 11300 mg/kg/day | LOAEL (mouse [15]; [34]): 11300 mg/kg/day | NEL (mouse [15]; [34]): 4500 mg/kg/day | NOAEL (mouse [15]; [34]): 4500 mg/kg/day | LEL (mouse [16]; group: developmental, developmental / developmental malformation / bone / incomplete ossification + systemic / in life observation / body weight / fetal weight): 5630 mg/kg/day | LOAEL (mouse [16]; [35]): > 11300 mg/kg/day | NEL (mouse [16]; [35]): 563 mg/kg/day | NOAEL (mouse [16]; [35]): ≥ 11300 mg/kg/day | LEL (mouse [16]; group: maternal, systemic / organ weight / uterus / nos): 5630 mg/kg/day | LOAEL (mouse [16]; [36]): > 11300 mg/kg/day | NEL (mouse [16]; [36]): 563 mg/kg/day | NOAEL (mouse [16]; [36]): ≥ 11300 mg/kg/day | LEL (mouse [17]; systemic / in life observation / body weight / offspring (pup) weight): 2000 mg/kg/day | NEL (mouse [17]; systemic / in life observation / body weight / offspring (pup) weight + systemic / organ weight / liver / relative to body weight): 400 mg/kg/day | LOAEL (mouse [17]; [37]): > 4000 mg/kg/day | NOAEL (mouse [17]; [37]): ≥ 4000 mg/kg/day | LEL (rat [18]): 4 mg/kg/day | LOAEL (rat [18]): > 4 mg/kg/day | NEL (rat [18]): < 4 mg/kg/day | NOAEL (rat [18]): ≥ 4 mg/kg/day | LEL (rat [19]; [38]): 11300 mg/kg/day | LOAEL (rat [19]; [38]): > 11300 mg/kg/day | NEL (rat [19]; [38]): 5630 mg/kg/day | NOAEL (rat [19]; [38]): ≥ 11300 mg/kg/day | LEL (rat [19]; [39]): 5630 mg/kg/day | LOAEL (rat [19]; [39]): > 11300 mg/kg/day | NEL (rat [19]; [39]): 1130 mg/kg/day | NOAEL (rat [19]; [39]): ≥ 11300 mg/kg/day

— EPA's ToxRefDB 2
